Our source for the IC50 and IC90 values is ChEMBL document CHEMBL4483862, “Open-source discovery of chemical leads for next-generation chemoprotective antimalarials” (2018).

The experiment relates to Plasmodium berghei. The experiment can be described thus: Luciferase/luciferin-expressing antifolate-resistant parasites were used to infect a culture of HepG2 cells that were pre-incubated with compounds. Infected hepatocytes emit light due to the luciferase reaction. Assay results are presented as the percent inhibition of light emission compared to control. […]. The class given is functional. The note with it: sporozoite; for IC90: read-out: LUCIFERASE INFECTION ASSAY - IC90.

Where [1] appears, read: read-out: LUCIFERASE INFECTION ASSAY - IC50.

For orientation: IC50 means the concentration that inhibits the measured activity by half. One may read the IC90 as the concentration at which the effect reaches the 90% level.

In the case of `Cc1nnc(Sc2ccc([N+](=O)[O-])c(Sc3nnc(C)s3)n2)s1`, the IC90 is above 8.58 µM. Also, for the setting “HEPG2TOX_HILL_SLOPE 6.33, HEPG2TOX_R_SQUARED 0.72, PBLUC_HILL_SLOPE 8.1, PBLUC_R_SQUARED 0.222, read-out: LUCIFERASE INFECTION ASSAY - IC50”, the IC50 was above 8.58 µM.

As for `N#Cc1c(N2CCCCCC2)nc(N)c2c(N)nc3c(c12)CC(=O)N3c1ccc(F)cc1`, the IC90 is 1.19 µM. Besides, the concentration for half-maximal inhibition (IC50) (FFLUC_HILL_SLOPE 141, FFLUC_R_SQUARED 0.168, PBLUC_HILL_SLOPE 30.3, PBLUC_R_SQUARED 0.605, read-out: LUCIFERASE INFECTION ASSAY - IC50) came out at 1.1 µM.

On to `c1ccc(-c2nc(NCCCN3CCOCC3)c3cc(-c4ccccc4)sc3n2)cc1`, for which the IC90 is above 10 µM. For the same compound, the IC50 (PBLUC_HILL_SLOPE 16.1, PBLUC_R_SQUARED 0.337, read-out: LUCIFERASE INFECTION ASSAY - IC50) was 9.75 µM.

`c1ccc(CN2CCc3nc(NCc4ccc(Oc5ccccc5)cc4)ncc3C2)cc1`: the IC90 was above 7.81 µM. In addition, the half-inhibitory concentration (IC50) under setting [1] is above 7.81 µM.

For `Cc1c(-c2ccccc2)oc2c(C(=O)N3CCc4ccccc4C3)cccc2c1=O`, the IC90 was above 10 µM. Also, the concentration for half-maximal inhibition (IC50) (PBLUC_HILL_SLOPE 6.24, PBLUC_R_SQUARED 0.0221, read-out: LUCIFERASE INFECTION ASSAY - IC50) is above 10 µM.

Regarding `COc1ccc(CC(N)c2csc(NC(=O)c3cc(C(C)(C)C)oc3C)n2)cc1` (configuration not stated), the IC90 came to 4.39 µM. Under setting [1], the IC50 was 2.91 µM.

As to `CC(=O)c1ccc(-c2cnc3sc(NCCN4CCOCC4)nn23)s1`, the IC90 was above 8.74 µM. Also, the IC50 (PBLUC_HILL_SLOPE 1.89, PBLUC_R_SQUARED 0.43, read-out: LUCIFERASE INFECTION ASSAY - IC50) was found to be 5.97 µM.

For `Cn1ccc2cc(-c3cn4c(-c5cccc(CO)c5)cnc4cn3)ccc21`, the 90% effect concentration (IC90) was 1.22 µM. For the same compound, the IC50 (HEPG2TOX_HILL_SLOPE 0.928, HEPG2TOX_R_SQUARED 0.91, PBLUC_HILL_SLOPE 2.22, PBLUC_R_SQUARED 0.697, read-out: LUCIFERASE INFECTION ASSAY - IC50) turned out to be 0.452 µM.

For the compound `O=C(Nc1cc(Cl)ccc1OC(=O)c1ccc(C(F)(F)F)cc1)c1ccc(C(F)(F)F)cc1`, the IC90 is 2.9 µM. For the same compound, the IC50 (HEPG2TOX_HILL_SLOPE 3.38, HEPG2TOX_R_SQUARED 0.98, PBLUC_HILL_SLOPE 2.51, PBLUC_R_SQUARED 0.591, read-out: LUCIFERASE INFECTION ASSAY - IC50) was 1.21 µM.

Consider `CC1Cc2ccccc2N1C(=O)COC(=O)c1ccc([N+](=O)[O-])cc1` (configuration not stated), for which the concentration for an effect of 90% (IC90) is above 10 µM. For the same compound, the IC50 under setting [1] was above 10 µM.

Take `CCCCCCOc1ccc(-c2cnc(SC)nc2)cc1`: the IC90 came out at 0.535 µM. Further, under setting [1], the IC50 amounted to 0.205 µM.

With `Cc1ccc(S(=O)(=O)N2CCC[C@H]2C(=O)Nc2ccc(-c3nc4ccccc4[nH]3)cc2)cc1`, the IC90 was above 10 µM. Further, for the setting “HEPG2TOX_HILL_SLOPE 1.59, HEPG2TOX_R_SQUARED 0.747, PBLUC_HILL_SLOPE 12.8, PBLUC_R_SQUARED 0.235, read-out: LUCIFERASE INFECTION ASSAY - IC50”, the IC50 stood at 8.44 µM.

Take `COc1ccc(CN2CCN(c3ncc(C(=O)Nc4ccc5c(c4)OCO5)s3)C2=O)cc1`: the 90% effect concentration (IC90) turned out to be 4.14 µM. For the same compound, under “HEPG2TOX_HILL_SLOPE 2.58, HEPG2TOX_R_SQUARED 0.97, PBLUC_HILL_SLOPE 17.4, PBLUC_R_SQUARED 0.0851, read-out: LUCIFERASE INFECTION ASSAY - IC50”, the IC50 was 3.65 µM.

Turning to `CC(OC(=O)c1cc2ccccc2cc1O)C(=O)Nc1cccc(S(=O)(=O)N2CCOCC2)c1` (configuration not stated), the IC90 is above 10 µM. For the same compound, the IC50 (FFLUC_HILL_SLOPE 10.4, FFLUC_R_SQUARED 0.221, read-out: LUCIFERASE INFECTION ASSAY - IC50) was above 10 µM.

Regarding `CCOC(=O)c1cc(OC)c2cccc(CN3CCCCCC3(C)C(=O)NCC(C)C)c2c1` (configuration not stated), the IC90 is above 7.26 µM. Moreover, the IC50 (PBLUC_HILL_SLOPE 12.1, PBLUC_R_SQUARED 0.495, read-out: LUCIFERASE INFECTION ASSAY - IC50) is 6.85 µM.

As to `CC(=O)c1ccc(NC(=O)CCn2nnc(-c3ccc(C(C)C)cc3)n2)cc1`, the 90% effect concentration (IC90) was above 10 µM. Also, the IC50 (PBLUC_HILL_SLOPE 1, PBLUC_R_SQUARED 0.439, read-out: LUCIFERASE INFECTION ASSAY - IC50) was found to be 6.32 µM.

Turning to `O=C1C(=O)N(CCc2ccccc2)c2c1cccc2C(F)(F)F`, the IC90 amounted to 5.96 µM. Further, the IC50 (FFLUC_HILL_SLOPE 10.6, FFLUC_R_SQUARED 0.162, HEPG2TOX_HILL_SLOPE 9.24, HEPG2TOX_R_SQUARED 0.771, PBLUC_HILL_SLOPE 5.11, PBLUC_R_SQUARED 0.647, read-out: LUCIFERASE INFECTION ASSAY - IC50) was 3.88 µM.

Consider `COc1ccc(N(Cc2nc(-c3cccs3)oc2C)S(=O)(=O)c2cccs2)cc1`, for which the IC90 came out at 0.446 µM. Moreover, the IC50 (HEPG2TOX_HILL_SLOPE 2.9, HEPG2TOX_R_SQUARED 0.761, PBLUC_HILL_SLOPE 1.87, PBLUC_R_SQUARED 0.806, read-out: LUCIFERASE INFECTION ASSAY - IC50) was 0.137 µM.

In the case of `COc1ccc(Sc2ccc(NC(=O)c3ccc(F)cc3)cc2C#N)cc1`, the IC90 was above 8.72 µM. The half-inhibitory concentration (IC50) under setting [1] is above 8.72 µM.

Turning to `CN(c1ccccc1)S(=O)(=O)c1ccc(C(=O)Nc2nn3cc(-c4ccccc4)nc3s2)cc1`, the IC90 was above 10 µM. For the same compound, the IC50 (HEPG2TOX_HILL_SLOPE 0.762, HEPG2TOX_R_SQUARED 0.67, PBLUC_HILL_SLOPE 10.6, PBLUC_R_SQUARED 0.0386, read-out: LUCIFERASE INFECTION ASSAY - IC50) is above 10 µM.

As for `Cc1cc(NC(=O)N2CCN(Cc3ccc(-c4ccccc4Cl)s3)CC2)no1`, the concentration for an effect of 90% (IC90) was above 10 µM. In addition, the concentration for half-maximal inhibition (IC50) (HEPG2TOX_HILL_SLOPE 17.1, HEPG2TOX_R_SQUARED 0.65, PBLUC_HILL_SLOPE 0.759, PBLUC_R_SQUARED 0.724, read-out: LUCIFERASE INFECTION ASSAY - IC50) stood at 1.19 µM.

As for `O=C(CSc1nnc(/C=C/c2ccc(F)cc2)[nH]1)N(c1ccccc1)C1CCCCC1`, the IC90 is 1.58 µM. In addition, for the setting “PBLUC_HILL_SLOPE 1.52, PBLUC_R_SQUARED 0.866, read-out: LUCIFERASE INFECTION ASSAY - IC50”, the IC50 stood at 0.374 µM.

Turning to `Cc1cc(C(=O)CN2CCN(C)CC2)c(C)n1C(c1ccccc1)c1ccccc1`, the IC90 was above 10 µM. In addition, the IC50 (PBLUC_HILL_SLOPE 2.18, PBLUC_R_SQUARED 0.339, read-out: LUCIFERASE INFECTION ASSAY - IC50) was found to be 6.77 µM.

As for `Cc1nn(Cc2ccccc2)c(Cl)c1C(=O)Nc1nnc(-c2ccccc2)o1`, the 90% effect concentration (IC90) worked out at 4.08 µM. Moreover, the IC50 (HEPG2TOX_HILL_SLOPE 1.65, HEPG2TOX_R_SQUARED 0.7, PBLUC_HILL_SLOPE 2.41, 3.47, PBLUC_R_SQUARED 0.702, 0.681, read-out: LUCIFERASE INFECTION ASSAY - IC50) was 1.84 µM.

Regarding `CC(=O)N/C(=C\c1ccccc1)C(=O)OCc1ncc(-c2ccccc2)o1`, the IC90 was above 10 µM. Under setting [1], the IC50 is above 10 µM.

Regarding `O=C(CCn1c(-c2ccc(F)cc2)n[nH]c1=S)Nc1nc2c(s1)CCCC2`, the IC90 was above 10 µM. For the setting “PBLUC_HILL_SLOPE 2.35, PBLUC_R_SQUARED 0.213, read-out: LUCIFERASE INFECTION ASSAY - IC50”, the IC50 stood at 4.33 µM.

As to `Cc1ccc(OC(=O)c2ccc(C(C)(C)C)cc2)c(NC(=O)c2ccc(C(C)(C)C)cc2)c1`, the IC90 was above 7.44 µM. Further, the IC50 (FFLUC_HILL_SLOPE 1.14, FFLUC_R_SQUARED 0.535, PBLUC_HILL_SLOPE 1.18, PBLUC_R_SQUARED 0.716, read-out: LUCIFERASE INFECTION ASSAY - IC50) was 1.43 µM.

As for `O=C(Nc1cc(S(=O)(=O)c2ccccc2)cs1)c1ccc(Cl)cc1`, the IC90 was 5.49 µM. Besides, the IC50 (HEPG2TOX_HILL_SLOPE 7.57, HEPG2TOX_R_SQUARED 0.801, PBLUC_HILL_SLOPE 3.36, PBLUC_R_SQUARED 0.445, read-out: LUCIFERASE INFECTION ASSAY - IC50) came out at 2.85 µM.

Take `Cc1cc(CN(Cc2ccc(C(=O)NC3CC3)cc2)Cc2ccco2)no1`: the IC90 is above 10 µM. For the same compound, the half-maximal inhibitory concentration (IC50) (PBLUC_HILL_SLOPE 2.47, PBLUC_R_SQUARED 0.284, read-out: LUCIFERASE INFECTION ASSAY - IC50) turned out to be 5.89 µM.

Regarding `Oc1c(C(c2ccc(Br)cc2)N2CCCC2)cc(Cl)c2cccnc12` (configuration not stated), the IC90 was found to be 4.01 µM. In addition, the IC50 (FFLUC_HILL_SLOPE 1.86, FFLUC_R_SQUARED 0.64, HEPG2TOX_HILL_SLOPE 1.66, HEPG2TOX_R_SQUARED 0.745, PBLUC_HILL_SLOPE 3.81, PBLUC_R_SQUARED 0.789, read-out: LUCIFERASE INFECTION ASSAY - IC50) was found to be 2.25 µM.

As for `N#CC(C(=O)COC(=O)COc1cc(Cl)c(Cl)cc1Cl)=C1Nc2ccccc2N1`, the concentration for an effect of 90% (IC90) was above 10 µM. Moreover, the IC50 under setting [1] is above 10 µM.

Turning to `COc1ccc(OC)c(-c2csc(NC(=O)c3[nH]c(C)c(C(C)=O)c3C)n2)c1`, the IC90 is above 10 µM. Further, the IC50 (PBLUC_HILL_SLOPE 2.64, PBLUC_R_SQUARED 0.217, read-out: LUCIFERASE INFECTION ASSAY - IC50) stood at 5.92 µM.

On to `COC(=O)C1=C(C)NC(C)=C(C(=O)OC)C1c1cc(NC(=O)NC2CCCCC2)ccc1OC(F)F`, for which the IC90 is above 10 µM. For the same compound, the half-maximal inhibitory concentration (IC50) under setting [1] was above 10 µM.

`COc1ccc(Nc2nnc(SC(C)C(=O)Nc3sccc3C(N)=O)s2)cc1` (configuration not stated): the IC90 is above 10 µM. Under setting [1], the IC50 is above 10 µM.

Regarding `Cc1cc(Cl)ccc1NC(N)=NN`, the IC90 was above 10.1 µM. In addition, under setting [1], the IC50 is above 10.1 µM.

Take `CCN(c1ccccc1)S(=O)(=O)c1ccc(Cl)c(NC(=O)Nc2ccc(Cl)cc2C#N)c1`: the IC90 was 7.06 µM. Further, under “PBLUC_HILL_SLOPE 5.41, PBLUC_R_SQUARED 0.801, read-out: LUCIFERASE INFECTION ASSAY - IC50”, the IC50 is 4.71 µM.
